CN1CCN(C2=Nc3cc(Cl)ccc3Nc3ccccc32)CC1
Settings | solubility (mole fraction)
in 1,2-dichloroethane, 283.15 K | 0.0117
in 1,2-dichloroethane, 288.15 K | 0.0157
in 1,2-dichloroethane, 293.15 K | 0.0183
in 1,2-dichloroethane, 298.15 K | 0.0215
in 1,2-dichloroethane, 303.15 K | 0.0243
in 1,2-dichloroethane, 308.15 K | 0.0285
in 1,2-dichloroethane, 313.15 K | 0.0314
in 1,2-dichloroethane, 318.15 K | 0.0386
in 1,2-dichloroethane, 323.15 K | 0.0464
in 1,2-dichloroethane, 328.15 K | 0.0573
in 1,2-dichloroethane, 333.15 K | 0.0648
in DMF, 283.15 K | 0.0781
in DMF, 288.15 K | 0.0844
in DMF, 293.15 K | 0.0893
in DMF, 298.15 K | 0.0936
in DMF, 303.15 K | 0.101
in DMF, 308.15 K | 0.111
in DMF, 313.15 K | 0.122
in DMF, 318.15 K | 0.133
in DMF, 323.15 K | 0.145
in DMF, 328.15 K | 0.155
in DMF, 333.15 K | 0.17
in DMSO, 293.15 K | 0.0596
in DMSO, 298.15 K | 0.064
in DMSO, 303.15 K | 0.0709
in DMSO, 308.15 K | 0.0836
in DMSO, 313.15 K | 0.0949
in DMSO, 318.15 K | 0.109
in DMSO, 323.15 K | 0.119
in DMSO, 328.15 K | 0.139
in DMSO, 333.15 K | 0.159
in NMP, 283.15 K | 0.0305
in NMP, 288.15 K | 0.0406
in NMP, 293.15 K | 0.0474
in NMP, 298.15 K | 0.0525
in NMP, 303.15 K | 0.0606
in NMP, 308.15 K | 0.0687
in NMP, 313.15 K | 0.075
in NMP, 318.15 K | 0.0827
in NMP, 323.15 K | 0.0987
in NMP, 328.15 K | 0.113
in NMP, 333.15 K | 0.118
in acetone, 283.15 K | 0.00791
in acetone, 288.15 K | 0.00914
in acetone, 293.15 K | 0.0122
in acetone, 298.15 K | 0.0139
in acetone, 303.15 K | 0.0164
in acetone, 308.15 K | 0.018
in acetone, 313.15 K | 0.0201
in acetone, 318.15 K | 0.0236
in acetone, 323.15 K | 0.0278
in benzene, 283.15 K | 0.00583
in benzene, 288.15 K | 0.00619
in benzene, 293.15 K | 0.00676
in benzene, 298.15 K | 0.00771
in benzene, 303.15 K | 0.00967
in benzene, 308.15 K | 0.0119
in benzene, 313.15 K | 0.0152
in benzene, 318.15 K | 0.0181
in benzene, 323.15 K | 0.0208
in benzene, 328.15 K | 0.0259
in benzene, 333.15 K | 0.0303
in ethanol, 283.15 K | 0.0057
in ethanol, 288.15 K | 0.00581
in ethanol, 293.15 K | 0.00644
in ethanol, 298.15 K | 0.00702
in ethanol, 303.15 K | 0.00767
in ethanol, 308.15 K | 0.00837
in ethanol, 313.15 K | 0.0089
in ethanol, 318.15 K | 0.0103
in ethanol, 323.15 K | 0.0112
in ethanol, 328.15 K | 0.0128
in ethanol, 333.15 K | 0.0158
in isopropanol, 283.15 K | 0.00272
in isopropanol, 288.15 K | 0.00278
in isopropanol, 293.15 K | 0.00296
in isopropanol, 298.15 K | 0.00327
in isopropanol, 303.15 K | 0.00374
in isopropanol, 308.15 K | 0.0044
in isopropanol, 313.15 K | 0.00503
in isopropanol, 318.15 K | 0.00591
in isopropanol, 323.15 K | 0.00643
in isopropanol, 328.15 K | 0.00846
in isopropanol, 333.15 K | 0.0103
in methanol, 283.15 K | 0.00638
in methanol, 288.15 K | 0.00648
in methanol, 293.15 K | 0.00713
in methanol, 298.15 K | 0.00785
in methanol, 303.15 K | 0.0088
in methanol, 308.15 K | 0.00975
in methanol, 313.15 K | 0.0103
in methanol, 318.15 K | 0.0109
in methanol, 323.15 K | 0.0118
in methanol, 328.15 K | 0.0143
in n-propanol, 283.15 K | 0.00617
in n-propanol, 288.15 K | 0.00619
in n-propanol, 293.15 K | 0.00669
in n-propanol, 298.15 K | 0.00754
in n-propanol, 303.15 K | 0.00794
in n-propanol, 308.15 K | 0.00863
in n-propanol, 313.15 K | 0.0109
in n-propanol, 318.15 K | 0.0127
in n-propanol, 323.15 K | 0.0142
in n-propanol, 328.15 K | 0.0171
in n-propanol, 333.15 K | 0.0199
in toluene, 283.15 K | 0.00352
in toluene, 288.15 K | 0.00465
in toluene, 293.15 K | 0.00549
in toluene, 298.15 K | 0.00651
in toluene, 303.15 K | 0.0075
in toluene, 308.15 K | 0.00858
in toluene, 313.15 K | 0.0105
in toluene, 318.15 K | 0.0118
in toluene, 323.15 K | 0.014
in toluene, 328.15 K | 0.0164
in toluene, 333.15 K | 0.0202
